# Calls of active or inactive are those of the source. The calls are words filed in the database; no cut-off is given here.
# Assays:
# [1] = Oral bioavailability in Kunming mouse at 10 mg/kg measured upto 24 hrs by LC-MS analysis; format: ADME, organism-based; conditions: in vivo
# [2] = Hemolytic activity in human RBC assessed as cell viability upto 256 ug/ml measured for 1 to 8 hrs by absorbance based assay relative to control; format: toxicity, Erythrocyte; conditions: red blood cells (erythrocytes), time 1-8 hrs, dose < 256 µg/ml, read-out: Activity
# [3] = Cytotoxicity against HEK293T cells assessed as cell viability at 0.256 mmol/L measured after 24 hrs by MTT assay relative to control; format: toxicity, cell-based, HEK-293T; conditions: human, read-out: Activity
# [4] = test system: Calf thymus DNA; experiment: Induction of calf thymus DNA cleavage at 0.05 mmol/L incubated for 6 hrs in presence of Cu2+ by agarose gel electrophoresis method; format: nucleic-acid assay; conditions: Bos taurus
# [5] = Tmax in Kunming mouse at 10 mg/kg, iv measured upto 24 hrs by LC-MS analysis; format: ADME, organism-based; conditions: in vivo
# [6] = test system: Calf thymus DNA; experiment: Induction of calf thymus DNA cleavage at 0.05 mmol/L incubated for 6 hrs by agarose gel electrophoresis method; format: nucleic-acid assay; conditions: Bos taurus
# [7] = MRT (0 to infinity) in Kunming mouse at 10 mg/kg, iv measured upto 24 hrs by LC-MS analysis; format: ADME, organism-based; conditions: in vivo
# [8] = test system: Escherichia coli; experiment: Antibacterial activity against Escherichia coli assessed as bacterial growth inhibition incubated for 24 hrs by broth microdilution method; format: functional
# [9] = test system: Calf thymus DNA; experiment: Binding affinity to calf thymus DNA assessed as binding constant, K by absorbance based assay; format: nucleic-acid assay; conditions: Bos taurus
# [10] = test system: Acinetobacter baumannii; experiment: Antibacterial activity against Acinetobacter baumannii infected in mouse assessed as log reduction in viable bacterial count at 30 mg/kg measured for 12 hrs; format: functional
# [11] = Volume of distribution at steady state in Kunming mouse at 10 mg/kg, iv measured upto 24 hrs by LC-MS analysis; format: ADME, organism-based; conditions: in vivo, read-out: Vdss
# [12] = test system: Calf thymus DNA; experiment: Binding affinity to calf thymus DNA incubated for 5 mins by DAPI displacement assay; format: nucleic-acid assay; conditions: Bos taurus
# [13] = test system: Acinetobacter baumannii; experiment: Antibiofilm activity against Acinetobacter baumannii assessed as increase in biofilm eradication incubated for 24 hrs by crystal violet staining based analysis; format: functional, organism-based
# [14] = test system: Enterococcus faecalis; experiment: Antibacterial activity against Enterococcus faecalis assessed as bacterial growth inhibition incubated for 24 hrs by broth microdilution method; format: functional
# [15] = MRT (0 to t) in Kunming mouse at 10 mg/kg, iv measured upto 24 hrs by LC-MS analysis; format: ADME, organism-based; conditions: in vivo
# [16] = Clearance in Kunming mouse at 10 mg/kg, iv measured upto 24 hrs by LC-MS analysis; format: ADME, organism-based; conditions: in vivo
# [17] = test system: Calf thymus DNA; experiment: Binding affinity to calf thymus DNA incubated overnight in presence of sodium chloride by sodium ion-quenching assay; format: nucleic-acid assay; conditions: Bos taurus
# [18] = Hemolytic activity in human RBC at 512 times MIC measured after 8 hrs by absorbance based assay relative to control; format: toxicity, cell-based, Erythrocyte; conditions: red blood cells (erythrocytes), read-out: Activity
# [19] = Tmax in Kunming mouse at 10 mg/kg, po measured upto 24 hrs by LC-MS analysis; format: ADME, organism-based; conditions: in vivo
# [20] = Hemolytic activity in human RBC at effective concentration measured after 1 hr by absorbance based assay relative to control; format: toxicity, cell-based, Erythrocyte; conditions: red blood cells (erythrocytes), read-out: Activity
# [21] = test system: Staphylococcus aureus; experiment: Antibacterial activity against methicillin-resistant Staphylococcus aureus assessed as bacterial growth inhibition incubated for 24 hrs by broth microdilution method; format: functional
# [22] = Cmax in Kunming mouse at 10 mg/kg, po measured upto 24 hrs by LC-MS analysis; format: ADME, organism-based; design: time < 24 hrs, dose 10 mg/kg, route po; conditions: in vivo
# [23] = AUC (0 to infinity) in Kunming mouse at 10 mg/kg, po measured upto 24 hrs by LC-MS analysis; format: ADME, organism-based; design: dose 10 mg/kg, time < 24 hrs, route po; conditions: in vivo
# [24] = test system: Acinetobacter baumannii; experiment: Antibacterial activity against Acinetobacter baumannii assessed as reduction in metabolic activity incubated for 6 hrs by alamar blue staining based assay; format: functional, organism-based
# [25] = Cytotoxicity against human L02 cells assessed as cell viability at effective concentration measured after 24 hrs by MTT assay relative to control; format: toxicity, cell-based; conditions: read-out: Activity
# [26] = test system: Acinetobacter baumannii; experiment: Antibacterial activity against Acinetobacter baumannii assessed as decrease in LDH activity incubated for 6 hrs by LDH assay; format: functional, organism-based
# [27] = AUC (0 to t) in Kunming mouse at 10 mg/kg, po measured upto 24 hrs by LC-MS analysis; format: ADME, organism-based; design: time < 24 hrs, dose 10 mg/kg, route po; conditions: in vivo
# [28] = test system: Klebsiella pneumoniae; experiment: Antibacterial activity against Klebsiella pneumoniae assessed as bacterial growth inhibition incubated for 24 hrs by broth microdilution method; format: functional
# [29] = AUMC (0 to t) in Kunming mouse at 10 mg/kg, iv measured upto 24 hrs by LC-MS analysis; format: ADME, organism-based; conditions: in vivo
# [30] = Cmax in Kunming mouse at 10 mg/kg, iv measured upto 24 hrs by LC-MS analysis; format: ADME, organism-based; design: dose 10 mg/kg, time < 24 hrs, route iv; conditions: in vivo
# [31] = test system: Acinetobacter baumannii; experiment: Antibacterial activity against Acinetobacter baumannii infected in mouse assessed as log reduction in viable bacterial count at 10 mg/kg measured for 12 hrs; format: functional
# [32] = test system: Acinetobacter baumannii; experiment: Antibacterial activity against Acinetobacter baumannii assessed as bacterial growth inhibition incubated for 24 hrs by broth microdilution method; format: functional
# [33] = test system: Calf thymus DNA; experiment: Induction of calf thymus DNA cleavage at 0.05 mmol/L incubated for 6 hrs in presence of Zn2+ by agarose gel electrophoresis method; format: nucleic-acid assay; conditions: Bos taurus
# [34] = test system: Calf thymus DNA; experiment: Induction of calf thymus DNA cleavage at 0.05 mmol/L incubated for 6 hrs in presence of Cu(NO3)2 by agarose gel electrophoresis method; format: nucleic-acid assay; conditions: Bos taurus
# [35] = C0 in Kunming mouse at 10 mg/kg, iv measured upto 24 hrs by LC-MS analysis; format: ADME, organism-based; conditions: in vivo
# [36] = test system: Calf thymus DNA; experiment: Binding affinity to calf thymus DNA assessed as compound-DNA complex formation by absorbance based assay; format: nucleic-acid assay; conditions: Bos taurus
# [37] = Half life in Kunming mouse at 10 mg/kg, iv measured upto 24 hrs by LC-MS analysis; format: ADME, organism-based; conditions: in vivo
# [38] = AUC (0 to t) in Kunming mouse at 10 mg/kg, iv measured upto 24 hrs by LC-MS analysis; format: ADME, organism-based; design: time < 24 hrs, dose 10 mg/kg, route iv; conditions: in vivo
# [39] = Volume of distribution in Kunming mouse at 10 mg/kg, po measured upto 24 hrs by LC-MS analysis; format: ADME, organism-based; conditions: in vivo
# [40] = test system: Erythrocyte; experiment: Hemolytic activity against human RBC assessed as change in cell morphology at 512 times MIC measured after 8 hrs by microscopic analysis; format: toxicity, cell-based
# [41] = AUMC (0 to t) in Kunming mouse at 10 mg/kg, po measured upto 24 hrs by LC-MS analysis; format: ADME, organism-based; conditions: in vivo
# [42] = Cytotoxicity against human L02 cells assessed as cell viability upto 0.128 mmol/L measured after 24 hrs by MTT assay relative to control; format: toxicity, cell-based; conditions: up to 0.128 mM, read-out: Activity
# [43] = Half life in Kunming mouse at 10 mg/kg, po measured upto 24 hrs by LC-MS analysis; format: ADME, organism-based; conditions: in vivo
# [44] = test system: Staphylococcus aureus; experiment: Antibacterial activity against Staphylococcus aureus ATCC 29213 assessed as bacterial growth inhibition incubated for 24 hrs by broth microdilution method; format: functional
# [45] = Clearance in Kunming mouse at 10 mg/kg, po measured upto 24 hrs by LC-MS analysis; format: ADME, organism-based; conditions: in vivo
# [46] = MRT (0 to t) in Kunming mouse at 10 mg/kg, po measured upto 24 hrs by LC-MS analysis; format: ADME, organism-based; conditions: in vivo
# [47] = test system: Cell membrane; experiment: Induction of inner membrane damage in Acinetobacter baumannii at 1 to 8 times MIC incubated for 30 mins by fluorescence based assay
# [48] = test system: Erythrocyte; experiment: Hemolytic activity in human RBC at greater than MIC measured for 2 to 4 hrs by absorbance based assay; format: toxicity, cell-based; conditions: time 2-4 hrs
smiles,measurement,setting,value
OCCN(CCO)c1nccc(-n2cncn2)n1,F,[1],35.41%
same,viability,[2],> 99%
same,"viability at 24 h, 256 µM",[3],80%
same,Activity,[4],inactive
same,Tmax,[5],1.98 min
same,Activity,[6],inactive
same,MRT inf,[7],3.98 h
same,MIC,[8],1020 µM
same,K,[9],1.7 10^3L/mol
same,log(activity),[10],3.5
same,Vd,[11],2.1 L/kg
same,Activity,[12],Dose-Dependent Effect
same,Activity,[13],Dose-Dependent Effect
same,MIC,[14],8 µM
same,MRT last at 24 h,[15],2.61 h
same,CL,[16],8.43 mL/min/kg
same,Activity,[17],Active
same,"hemolysis at 8 h, 512 times MIC",[18],1.5%
same,Tmax,[19],0.58 h
same,hemolysis at 1 h,[20],< 5%
same,MIC,[21],1020 µM
same,Cmax,[22],2130 ng/mL
same,AUC,[23],8073 ng·h/mL
same,Activity,[24],Dose-Dependent Effect
same,viability at 24 h,[25],> 75%
same,Activity,[26],Dose-Dependent Effect
same,AUC(0-t) at 24 h,[27],7870 ng·h/mL
same,MIC,[28],8 µM
same,AUMCt,[29],5446 hr.hr.ng/ml
same,Cmax,[30],1990 ng/mL
same,log(activity),[31],1.6
same,MIC,[32],2 µM
same,Activity,[33],inactive
same,Activity,[34],inactive
same,C0 at 24 h,[35],2590 ng/mL
same,Activity,[36],Active
same,half-life,[37],2.79 h
same,AUC(0-t) at 24 h,[38],2080 ng·h/mL
same,Vd,[39],7.89 L/kg
same,Activity,[40],Non-Toxic
same,AUMCt,[41],31290 hr.hr.ng/ml
same,viability at 24 h,[42],85%
same,half-life,[43],4.39 h
same,MIC,[44],1020 µM
same,CL/F,[45],20.7 mL/min/kg
same,MRT last at 24 h,[46],3.97 h
same,Activity,[47],inactive
same,Activity,[48],Non-Toxic
